Target: purified recombinant human GAC (GLS1) (Homo sapiens (Human), UniProt O94925)
Assay: GLS1 Enzymatic Activity Assay (dual-coupled enzymatic assay, resorufin/Amplex UltraRed readout);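 further: glutamate from GAC coupled via glutamate oxidase and peroxidase to resorufin, read as fluorescence (ex 530, em 590 nm) kinetically or at 20 min, four-parameter logistic IC50 fit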
Format: biochemical

Sequence of purified recombinant human GAC (GLS1) (O94925 other isoform, or with tags, fused parts or gaps): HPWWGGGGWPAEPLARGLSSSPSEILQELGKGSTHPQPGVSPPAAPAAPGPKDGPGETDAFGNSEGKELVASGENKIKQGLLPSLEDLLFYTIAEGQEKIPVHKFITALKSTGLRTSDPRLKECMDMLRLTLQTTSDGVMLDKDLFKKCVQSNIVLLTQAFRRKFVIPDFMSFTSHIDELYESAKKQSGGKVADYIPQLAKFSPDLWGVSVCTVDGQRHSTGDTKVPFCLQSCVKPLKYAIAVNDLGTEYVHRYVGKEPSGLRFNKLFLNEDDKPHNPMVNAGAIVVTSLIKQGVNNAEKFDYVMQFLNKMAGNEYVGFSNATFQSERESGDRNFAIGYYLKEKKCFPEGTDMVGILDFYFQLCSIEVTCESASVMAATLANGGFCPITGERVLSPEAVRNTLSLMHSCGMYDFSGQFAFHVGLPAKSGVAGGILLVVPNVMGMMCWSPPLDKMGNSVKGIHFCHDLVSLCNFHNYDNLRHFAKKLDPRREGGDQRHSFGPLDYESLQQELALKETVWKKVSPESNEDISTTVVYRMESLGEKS

IC50 [nM] | Structure (SMILES)
500 to 5000 | O=C(Cc1ccccn1)Nc1cn(CCCCn2cc(C(=O)NCc3ccccn3)nn2)nn1 [Example 297, 1-[4-[4-[[2-(2-pyridyl)acetyl]amino]triazol-1-yl]butyl]-N-(2-pyridylmethyl)triazole-4-carboxamide]
500 to 5000 | O=C(Cc1cccnc1)Nc1cn(CCCCn2cc(C(=O)NCc3ccccn3)nn2)nn1 [Example 298, N-(pyridin-2-ylmethyl)-1-(4-{4-[2-(pyridin-3-yl)acetamido]-1H-1,2,3-triazol-1-yl}butyl)-1H-1,2,3-triazole-4-carboxamide]
500 to 5000 | O=C(Cc1ccccn1)Nc1cn(CCCCn2cc(C(=O)NCC3CC3)nn2)nn1 [Example 302, N-(cyclopropylmethyl)-1-(4-{4-[2-(pyridin-2-yl)acetamido]-1H-1,2,3-triazol-1-yl}butyl)-1H-1,2,3-triazole-4-carboxamide]
500 to 5000 | O=C(Cc1cccnc1)Nc1cn(CCCCn2cc(C(=O)NCC3CC3)nn2)nn1 [Example 303, N-(cyclopropylmethyl)-1-(4-{4-[2-(pyridin-3-yl)acetamido]-1H-1,2,3-triazol-1-yl}butyl)-1H-1,2,3-triazole-4-carboxamide]
500 to 5000 | O=C(CC1CCCC1)Nc1cn(CCCCn2cc(C(=O)NCC3CC3)nn2)nn1 [Example 304, 1-{4-[4-(2-cyclopentylacetamido)-1H-1,2,3-triazol-1-yl]butyl}-N-(cyclopropylmethyl)-1H-1,2,3-triazole-4-carboxamide]
500 to 5000 | O=C(CC1CC1)Nc1cn(CCCCn2cc(C(=O)NCc3cccnc3)nn2)nn1 [Example 308, 1-{4-[4-(2-cyclopropylacetamido)-1H-1,2,3-triazol-1-yl]butyl}-N-(pyridin-3-ylmethyl)-1H-1,2,3-triazole-4-carboxamide]
500 to 5000 | O=C(CN1CC(F)(F)C1)Nc1cn(CCCCn2cc(C(=O)NCc3ccccn3)nn2)nn1 [Example 323, 1-(4-{4-[2-(3,3-difluoroazetidin-1-yl)acetamido]-1H-1,2,3-triazol-1-yl}butyl)-N-(pyridin-2-ylmethyl)-1H-1,2,3-triazole-4-carboxamide]
500 to 5000 | O=C(CN1CC(F)C1)Nc1cn(CCCCn2cc(C(=O)NCc3ccccn3)nn2)nn1 [Example 324, 1-(4-{4-[2-(3-fluoroazetidin-1-yl)acetamido]-1H-1,2,3-triazol-1-yl}butyl)-N-(pyridin-2-ylmethyl)-1H-1,2,3-triazole-4-carboxamide]
500 to 5000 | O=C(CN1CCC(F)(F)C1)Nc1cn(CCCCn2cc(C(=O)NCc3ccccn3)nn2)nn1 [Example 325, 1-(4-{4-[2-(3,3-difluoropyrrolidin-1-yl)acetamido]-1H-1,2,3-triazol-1-yl}butyl)-N-(pyridin-2-ylmethyl)-1H-1,2,3-triazole-4-carboxamide]
500 to 5000 | O=C(CN1CCC(F)(F)CC1)Nc1cn(CCCCn2cc(C(=O)NCc3ccccn3)nn2)nn1 [Example 326, 1-(4-{4-[2-(4,4-difluoropiperidin-1-yl)acetamido]-1H-1,2,3-triazol-1-yl}butyl)-N-(pyridin-2-ylmethyl)-1H-1,2,3-triazole-4-carboxamide]
500 to 5000 | O=C(Cc1cccc(OC(F)(F)F)c1)Nc1cn(CCCCn2cc(C(=O)NCc3cc(OC(F)(F)F)ccc3F)nn2)nn1 [Example 333, N-{[2-fluoro-5-(trifluoromethoxy)phenyl]methyl}-1-[4-(4-{2-[3-(trifluoromethoxy)phenyl]acetamido}-1H-1,2,3-triazol-1-yl)butyl]-1H-1,2,3-triazole-4-carboxamide]
500 to 5000 | Cc1ccc(CNC(=O)c2cn(CCCCn3cc(NC(=O)CN4CC(F)C4)nn3)nn2)cn1 [Example 348, 1-(4-{4-[2-(3-fluoroazetidin-1-yl)acetamido]-1H-1,2,3-triazol-1-yl}butyl)-N-[(6-methylpyridin-3-yl)methyl]-1H-1,2,3-triazole-4-carboxamide]
100 to 500 | O=C(CN1CC(F)C1)Nc1cn(CCCCn2cc(C(=O)NCc3cc(Cl)ccc3F)nn2)nn1 [Example 349, N-[(5-chloro-2-fluorophenyl)methyl]-1-(4-{4-[2-(3-fluoroazetidin-1-yl)acetamido]-1H-1,2,3-triazol-1-yl}butyl)-1H-1,2,3-triazole-4-carboxamide]
500 to 5000 | Cc1ccc(CNC(=O)c2cn(CCCCn3cc(NC(=O)CN4CC(F)(F)C4)nn3)nn2)cn1 [Example 351, 1-(4-{4-[2-(3,3-difluoroazetidin-1-yl)acetamido]-1H-1,2,3-triazol-1-yl}butyl)-N-[(6-methylpyridin-3-yl)methyl]-1H-1,2,3-triazole-4-carboxamide]
500 to 5000 | Cc1ccc(CNC(=O)c2cn(CCCCn3cc(NC(=O)CN4CCC(F)(F)C4)nn3)nn2)cn1 [Example 354, 1-(4-{4-[2-(3,3-difluoropyrrolidin-1-yl)acetamido]-1H-1,2,3-triazol-1-yl}butyl)-N-[(6-methylpyridin-3-yl)methyl]-1H-1,2,3-triazole-4-carboxamide]
500 to 5000 | O=C(CN1CCC(F)(F)C1)Nc1cn(CCCCn2cc(C(=O)NCc3ncccc3F)nn2)nn1 [Example 357, 1-(4-{4-[2-(3,3-difluoropyrrolidin-1-yl)acetamido]-1H-1,2,3-triazol-1-yl}butyl)-N-[(3-fluoropyridin-2-yl)methyl]-1H-1,2,3-triazole-4-carboxamide]
500 to 5000 | Cc1ccc(CNC(=O)c2cn(CCCCn3cc(NC(=O)CN4CCC(F)(F)CC4)nn3)nn2)cn1 [Example 358, 1-(4-{4-[2-(4,4-difluoropiperidin-1-yl)acetamido]-1H-1,2,3-triazol-1-yl}butyl)-N-[(6-methylpyridin-3-yl)methyl]-1H-1,2,3-triazole-4-carboxamide]
500 to 5000 | O=C(CN1CCC(F)(F)CC1)Nc1cn(CCCCn2cc(C(=O)NCc3ncccc3F)nn2)nn1 [Example 361, 1-(4-{4-[2-(4,4-difluoropiperidin-1-yl)acetamido]-1H-1,2,3-triazol-1-yl}butyl)-N-[(3-fluoropyridin-2-yl)methyl]-1H-1,2,3-triazole-4-carboxamide]
500 to 5000 | O=C(Cc1ccccn1)Nc1cn(CC(F)CCn2cc(C(=O)NCc3ccccn3)nn2)nn1 (stereo not drawn) [Example 362, 1-(3-fluoro-4-{4-[2-(pyridin-2-yl)acetamido]-1H-1,2,3-triazol-1-yl}butyl)-N-(pyridin-2-ylmethyl)-1H-1,2,3-triazole-4-carboxamide]
500 to 5000 | O=C(Cc1ccccn1)Nc1cn(CC(F)CCn2cc(C(=O)NCc3ncccc3F)nn2)nn1 (stereo not drawn) [Example 365, 1-(3-fluoro-4-{4-[2-(pyridin-2-yl)acetamido]-1H-1,2,3-triazol-1-yl}butyl)-N-[(3-fluoropyridin-2-yl)methyl]-1H-1,2,3-triazole-4-carboxamide]
100 to 500 | Cc1ccc(CNC(=O)c2cn(CCC(F)Cn3cc(NC(=O)CN4CC(F)C4)nn3)nn2)cn1 (stereo not drawn) [Example 374, 1-(3-fluoro-4-{4-[2-(3-fluoroazetidin-1-yl)acetamido]-1H-1,2,3-triazol-1-yl}butyl)-N-[(6-methylpyridin-3-yl)methyl]-1H-1,2,3-triazole-4-carboxamide]

Reference: patent publication US10344025B2, “GLS1 inhibitors for treating disease” (Board of Regents, The University of Texas System, priority 2014, dated 2019)
